We go through seven compounds from paper PMC3813752 (PLoS ONE, 2013).

Structures are written as SMILES. Entries after “also recorded” stand apart in the source; their conditions may differ. Where two headings read alike, the source gives them in different places. Marks after values point to notes of the source that are not given here.

Usually EC50 stands for the concentration at which the effect is half-maximal. The inhibition is the drop in the measured response relative to a control, in per cent. Broadly, the IC50 is the midpoint of a concentration-inhibition curve. High values mean weaker potency, low ones greater potency. For orientation: Ki means the dissociation constant of the complex between target and ligand, obtained from inhibition or displacement.

Test [1] concerns the target T1, human CB1 receptor (Homo sapiens, UniProt P21554). The following applies: determined at 100 µM; cited from earlier work.
Test [2] concerns the target human GPR55 (Homo sapiens, UniProt Q9Y2T6). Description: β-arrestin recruitment assay (PathHunter), CHO cells expressing GPR55. The following applies: for inhibition at 10 µM: CHO; for IC50: GPR55 IC50, β-arrestin recruitment, antagonist mode vs. LPI (1 µM); for agonist effect on β-arrestin recruitment at GPR55: test compound 10 µM, related to effect of LPI 1 µM = 100%; for functional property at GPR55 (agonist/antagonist): in words. (Recruitment of arrestin is a read-out of receptor activation apart from second messengers.)

Test [3] concerns the target T2, human GPR18 (Homo sapiens, UniProt Q14330).
T2 sequence (Q14330 1-331): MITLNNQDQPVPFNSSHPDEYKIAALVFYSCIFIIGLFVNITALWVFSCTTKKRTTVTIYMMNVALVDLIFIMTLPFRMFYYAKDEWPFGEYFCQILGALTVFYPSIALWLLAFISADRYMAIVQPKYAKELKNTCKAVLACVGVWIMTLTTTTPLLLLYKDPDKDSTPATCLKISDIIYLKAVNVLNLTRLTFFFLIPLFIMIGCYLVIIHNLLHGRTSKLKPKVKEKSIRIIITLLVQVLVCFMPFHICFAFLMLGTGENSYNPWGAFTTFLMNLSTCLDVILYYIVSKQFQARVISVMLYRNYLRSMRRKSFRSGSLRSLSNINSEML
Particulars: for agonist effect on β-arrestin recruitment at GPR18: test compound 10 µM, related to effect of Δ9-THC 10 µM = 100%; for functional property at GPR18 (agonist/antagonist): in words.

For test [4], the target named is T2, human GPR18. Kind of test: cell-based. Particulars: for inhibition at 10 µM: CHO, read-out: % inhibition of Δ9-THC (10 µM)-induced β-arrestin recruitment at GPR18, test compound at 10 µM; for IC50: GPR18 IC50, β-arrestin recruitment, antagonist mode vs. Δ9-THC (10 µM).
For test [5], the target named is T3, human CB2 receptor (Homo sapiens, UniProt P34972). Description: cAMP accumulation assay, CHO cells expressing CB2. The format is cell-based. The following applies: for functional property at CB2 (agonist/antagonist): in words, standard ligands partly from the literature; for efficacy CB2, cAMP accumulation assay: at 10 µM, compared to max. effect of full agonist CP55,940 (1 µM) = 100%.

Test [6] deals with T3, human CB2 receptor. Particulars: in words; cited from earlier work.
Test [7] has as its target T3, human CB2 receptor. Kind of test: Radioligand binding (heterologous competition) vs. [3H]CP55,940 at CB2.
For test [8], the target named is T1, human CB1 receptor. Kind of test: cAMP accumulation assay, CHO cells expressing CB1. The following applies: for functional property at CB1 (agonist/antagonist): in words, standard ligands partly from the literature; for efficacy CB1, cAMP accumulation assay: at 10 µM, compared to max. effect of full agonist CP55,940 (1 µM) = 100%. The format is cell-based. Background: Changes in cAMP serve as a functional read-out for many G protein-coupled receptors.

In test [9] the target is T1, human CB1 receptor. Description: biochemical. The format is binding. The following applies: for Ki: membranes of CHO cells expressing human CB1, three independent experiments in duplicates, read-out: Ki CB1, heterologous competition vs. [3H]CP55,940.
The mark [10] stands for this setting: read-out: % inhibition of LPI (1 µM)-induced β-arrestin recruitment at GPR55.
[11] abbreviates: read-out: % inhibition of LPI (1 µM)-induced β-arrestin recruitment at GPR55, test compound at 10 µM.
[12] abbreviates: Ki CB2, heterologous competition vs. [3H]CP55,940, membranes of CHO cells expressing human CB2, three independent experiments in duplicates.
[13] abbreviates: membranes of CHO cells expressing human CB2, three independent experiments in duplicates, read-out: Ki CB2, heterologous competition vs. [3H]CP55,940.

Sequence of human GPR55 (Q9Y2T6 whole entry): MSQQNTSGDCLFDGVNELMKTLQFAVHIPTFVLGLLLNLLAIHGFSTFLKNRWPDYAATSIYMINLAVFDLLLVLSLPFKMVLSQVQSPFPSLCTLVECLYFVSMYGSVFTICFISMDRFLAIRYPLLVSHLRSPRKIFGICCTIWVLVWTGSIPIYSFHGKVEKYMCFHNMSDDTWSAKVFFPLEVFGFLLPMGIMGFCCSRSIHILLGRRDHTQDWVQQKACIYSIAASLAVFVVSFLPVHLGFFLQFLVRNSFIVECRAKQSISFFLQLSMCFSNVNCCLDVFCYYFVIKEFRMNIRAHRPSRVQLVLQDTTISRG
T1 sequence (P21554 whole entry): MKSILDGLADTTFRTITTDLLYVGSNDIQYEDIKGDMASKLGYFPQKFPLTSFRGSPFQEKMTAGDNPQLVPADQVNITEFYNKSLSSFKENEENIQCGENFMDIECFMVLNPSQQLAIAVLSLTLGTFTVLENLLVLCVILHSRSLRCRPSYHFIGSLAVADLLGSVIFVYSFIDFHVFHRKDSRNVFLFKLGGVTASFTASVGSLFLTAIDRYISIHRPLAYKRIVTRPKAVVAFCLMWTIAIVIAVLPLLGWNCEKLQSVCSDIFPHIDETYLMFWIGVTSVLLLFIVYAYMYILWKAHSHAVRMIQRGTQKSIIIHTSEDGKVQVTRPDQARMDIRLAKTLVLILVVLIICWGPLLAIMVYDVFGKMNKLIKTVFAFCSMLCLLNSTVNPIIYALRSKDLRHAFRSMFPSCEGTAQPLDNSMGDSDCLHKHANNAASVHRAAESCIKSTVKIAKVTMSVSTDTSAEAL
T3 sequence (P34972 whole entry): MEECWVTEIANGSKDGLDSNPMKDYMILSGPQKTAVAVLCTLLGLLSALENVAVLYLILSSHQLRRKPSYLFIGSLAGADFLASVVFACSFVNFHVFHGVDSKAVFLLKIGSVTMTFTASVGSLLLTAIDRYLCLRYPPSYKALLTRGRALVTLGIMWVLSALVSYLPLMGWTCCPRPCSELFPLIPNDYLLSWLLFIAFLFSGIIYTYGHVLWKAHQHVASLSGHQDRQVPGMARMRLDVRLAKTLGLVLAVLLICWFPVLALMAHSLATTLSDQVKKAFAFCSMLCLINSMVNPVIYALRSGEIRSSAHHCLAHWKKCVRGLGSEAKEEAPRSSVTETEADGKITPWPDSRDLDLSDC

In the case of `C=CCc1ccc(O)c(-c2cc(CC=C)ccc2O)c1` [Compound 9, 4-allyl-2-(5-allyl-2-hydroxyphenyl)phenol, reference compound], the “efficacy CB1, cAMP accumulation assay” value in test [1] was 62%. For the same compound, in test [2], the 50% effective concentration (EC50) was more than 10 µM, the IC50 is more than 10 µM and the “agonist effect on β-arrestin recruitment at GPR55” value (“agonist effect … at GPR55” below) is listed as 11%. In addition, the inhibition at 10 µM in [2] (setting [10]) turned out to be 0%. For the same compound, the “agonist effect on β-arrestin recruitment at GPR18” value (“agonist effect … at GPR18” for short) in [3] came to 0%. Also, in test [4], the EC50 was more than 10 µM, the inhibition at 10 µM came out at 2% and the half-maximal inhibitory concentration (IC50) is more than 10 µM.

Turning to `C=CCc1ccc(O)c(-c2ccc(OC)c(CC=C)c2)c1` [Compound 11, 4′-O-Methylhonokiol, reference compound], in test [2], the EC50 is more than 10 µM, the IC50 was 7.77 ± 0.97 µM, the “functional property at GPR55 (agonist/antagonist)” value is “antagonist” and the “agonist effect … at GPR55” value worked out at 4%. In [2] (setting [11]), the inhibition at 10 µM is 87%. Further, in test [3], the “functional property at GPR18 (agonist/antagonist)” value was “antagonist” and the “agonist effect … at GPR18” value amounted to 0%. Also, the “functional property at CB2 (agonist/antagonist)” value in test [5] is listed as “agonist”. In addition, the “functional property at CB2” value in [6] is reported as “inverse agonist”. Further, in test [4], the EC50 was more than 10 µM, the inhibition at 10 µM came to 37% and the IC50 is more than 10 µM. The Ki in test [7] (setting [12]) was determined as 0.0433 ± 0.0171 µM.

Take `CCCCCCc1ccc(O)c(-c2cc(CCC)ccc2OC)c1` [Compound 61a, 5-Hexyl-2′-methoxy-5′-propylbiphenyl-2-ol]: in [8], the “functional property at CB1 (agonist/antagonist)” value is given as “Full agonists; also recorded: agonist”. Also, the EC50 in test [8] (inhibition of forskolin-stimulated cAMP, CHO-hCB1, read-out: EC50 CB1, cAMP accumulation assay) worked out at 0.159 ± 0.076 µM. Further, in test [9], the “increase in CB1 receptor affinity of 61a compared to isomer 61b” value is listed as 33 fold and the Ki was 0.00957 ± 0.00543 µM. For the same compound, in test [9] (60a vs 60, 61a vs 61), the “increase in CB1 receptor affinity compared to the unmethylated parent biphenyl” value was determined as 15 fold. Also, in [2], the concentration giving a half-maximal response (EC50) is more than 10 µM, the concentration for half-maximal inhibition (IC50) is approximately 10 µM, the “functional property at GPR55 (agonist/antagonist)” value was “antagonist” and the “agonist effect … at GPR55” value stood at 0%. Moreover, in test [2] (setting [10]), the inhibition at 10 µM came out at 58%. Further, in [3], the “functional property at GPR18 (agonist/antagonist)” value is reported as “antagonist” and the “agonist effect … at GPR18” value amounted to 0%. In test [5], the response was half-maximal at 0.0385 ± 0.017 µM (EC50) and the “functional property at CB2 (agonist/antagonist)” value is recorded as “Full agonists; also recorded: agonist”. In test [4], the EC50 is more than 10 µM, the inhibition at 10 µM stood at 30% and the IC50 was more than 10 µM. For the same compound, the “increase in CB2 receptor affinity of 61a compared to isomer 61b” value in test [7] is 12 fold. This compound also returned an inhibition constant (Ki) in test [7] (setting [12]) of 0.0238 ± 0.0071 µM.

On to `CCCCCCc1ccc(OC)c(-c2cc(CCC)ccc2O)c1` [Compound 61b, 5′-Hexyl-2′-methoxy-5-propylbiphenyl-2-ol], for which, in test [8], the Kb was determined as 1.85 µM and the “functional property at CB1 (agonist/antagonist)” value is reported as “CB1-antagonistic activity; also recorded: antagonist”. For the same compound, in [9], the “reduction of CB1 receptor affinity compared to 61” value is given as 2 fold and the Ki was 0.313 ± 0.125 µM. For the same compound, in test [2], the EC50 is more than 10 µM, it took 3.25 ± 0.29 µM to reach half-maximal inhibition (IC50), the “functional property at GPR55 (agonist/antagonist)” value is “antagonist” and the “agonist effect … at GPR55” value is on record as 0%. Besides, in test [2] (setting [11]), the inhibition at 10 µM turned out to be 120%. Moreover, in test [3], the “functional property at GPR18 (agonist/antagonist)” value is given as “antagonist” and the “agonist effect … at GPR18” value is 0%. In addition, in test [5], the EC50 was determined as 0.595 ± 0.15 µM and the “functional property at CB2 (agonist/antagonist)” value is reported as “partial agonistic activity; also recorded: agonist”. For the same compound, in test [4], the EC50 is more than 10 µM, the inhibition at 10 µM was found to be 22% and the IC50 is more than 10 µM. The Ki in [7] (setting [13]) was 0.281 ± 0.101 µM.

On to `CCCCCCCCc1ccc(O)c(-c2cc(CCC)ccc2O)c1` [Compound 63], for which the “efficacy CB1, cAMP accumulation assay” value in test [8] was “(73%)^b”. The Ki in [9] was 1.66 ± 0.45 µM. For the same compound, in test [2], the EC50 is more than 10 µM, the IC50 was more than 10 µM and the “agonist effect … at GPR55” value is given as 0%. Further, the inhibition at 10 µM in [2] (setting [11]) came out at 0%. In addition, in [3], the “agonist effect … at GPR18” value was found to be 0%. For the same compound, in test [5], the “efficacy CB2, cAMP accumulation assay” value is “(52%)^b”. In [4], the EC50 was more than 10 µM, the inhibition at 10 µM was 123% and half-maximal inhibition (IC50) required 10.7 ± 0.7 µM. In addition, the Ki in test [7] (setting [13]) was 0.955 ± 0.418 µM.

Turning to `CCCCCc1ccc(O)c(-c2cc(CCCC)ccc2O)c1` [Compound 64], in test [8], the “efficacy CB1, cAMP accumulation assay” value was “(122%)^b”. The Ki in [9] stood at 3.61 ± 1.35 µM. Also, in [2], the EC50 is more than 10 µM, the 50% inhibitory concentration (IC50) is more than 10 µM and the “agonist effect … at GPR55” value came to 15%. Also, the inhibition at 10 µM in test [2] (setting [11]) came out at 21%. For the same compound, the “agonist effect … at GPR18” value in [3] amounted to 0%. Further, in [5], the “efficacy CB2, cAMP accumulation assay” value is reported as “(68%)^b”. Besides, in test [4], the EC50 is more than 10 µM, the inhibition at 10 µM was 94% and half-maximal inhibition (IC50) was put at 13.9 ± 0.9 µM. In test [7] (setting [13]), the Ki is 0.234 ± 0.039 µM.

As for `CCCCCCc1ccc(O)c(-c2cc(CCCC)ccc2O)c1` [Compound 65], the “efficacy CB1, cAMP accumulation assay” value in test [8] was “(95%)^b”. The Ki was 2.6 ± 0.09 µM in [9] and 0.67 µM in test [7] (vs. [3H]CP55,940, read-out: Ki CB2). The EC50 in [2] and in test [4] was more than 10 µM in each case. In addition, the inhibition at 10 µM in test [2] (setting [11]) is 15%; in test [4] it was 116%. Moreover, the IC50 in test [2] is more than 10 µM; in [4], 11 ± 0.7 µM. In addition, the “agonist effect … at GPR55” value in [2] was 36%. Also, the “agonist effect … at GPR18” value in test [3] is 0%. Besides, the “efficacy CB2, cAMP accumulation assay” value in [5] was “(49%)^b”.
